Experimental data reported in patent US6893642B1, “Algae protein polysaccharide extraction and use thereof” (priority 1999, dated 2005).

Tests used:
mice injected with CTX = test: T-lymphocyte test; format: in vivo; details: positive control: CTX 10 mg/kg/d then water p.o.
Description: Mice, body weight of 18-22 g, were randomly divided into a blank control group, positive control group, a higher dose group and a lower dose group, with 10 mice per group. The mice in the treated groups were injected with CTX at a dose of 10 mg/kg/d, and then treated with proteoglycan extracts of Spirulina via p.o., at the same dose as above. The mice in the positive control group were treated with CTX at a dose of 10 mg/kg/d, and then treated with water via p.o. the mice in the control group only were treated with water via p.o. after the treatment was continuously taken for 10 days, the treatment was stopped for 2 days. Blood was harvested from eye sockets of the mice for lymphocyte slices. After incubation and dyeing, T-lymphocyte percentage was determined.

[1] = target: T1, PTK picked up from A431 cell containing the EGFR (Homo sapiens, UniProt P00533); test: Phosphorylation of protein tyrosine kinase (PTK); format: biochemical
T1 construct: we used A431 cell containing the EGFR for picking up PTK; endogenous in cells; host or cells: A431 cells
T1 sequence (P00533 25-1210): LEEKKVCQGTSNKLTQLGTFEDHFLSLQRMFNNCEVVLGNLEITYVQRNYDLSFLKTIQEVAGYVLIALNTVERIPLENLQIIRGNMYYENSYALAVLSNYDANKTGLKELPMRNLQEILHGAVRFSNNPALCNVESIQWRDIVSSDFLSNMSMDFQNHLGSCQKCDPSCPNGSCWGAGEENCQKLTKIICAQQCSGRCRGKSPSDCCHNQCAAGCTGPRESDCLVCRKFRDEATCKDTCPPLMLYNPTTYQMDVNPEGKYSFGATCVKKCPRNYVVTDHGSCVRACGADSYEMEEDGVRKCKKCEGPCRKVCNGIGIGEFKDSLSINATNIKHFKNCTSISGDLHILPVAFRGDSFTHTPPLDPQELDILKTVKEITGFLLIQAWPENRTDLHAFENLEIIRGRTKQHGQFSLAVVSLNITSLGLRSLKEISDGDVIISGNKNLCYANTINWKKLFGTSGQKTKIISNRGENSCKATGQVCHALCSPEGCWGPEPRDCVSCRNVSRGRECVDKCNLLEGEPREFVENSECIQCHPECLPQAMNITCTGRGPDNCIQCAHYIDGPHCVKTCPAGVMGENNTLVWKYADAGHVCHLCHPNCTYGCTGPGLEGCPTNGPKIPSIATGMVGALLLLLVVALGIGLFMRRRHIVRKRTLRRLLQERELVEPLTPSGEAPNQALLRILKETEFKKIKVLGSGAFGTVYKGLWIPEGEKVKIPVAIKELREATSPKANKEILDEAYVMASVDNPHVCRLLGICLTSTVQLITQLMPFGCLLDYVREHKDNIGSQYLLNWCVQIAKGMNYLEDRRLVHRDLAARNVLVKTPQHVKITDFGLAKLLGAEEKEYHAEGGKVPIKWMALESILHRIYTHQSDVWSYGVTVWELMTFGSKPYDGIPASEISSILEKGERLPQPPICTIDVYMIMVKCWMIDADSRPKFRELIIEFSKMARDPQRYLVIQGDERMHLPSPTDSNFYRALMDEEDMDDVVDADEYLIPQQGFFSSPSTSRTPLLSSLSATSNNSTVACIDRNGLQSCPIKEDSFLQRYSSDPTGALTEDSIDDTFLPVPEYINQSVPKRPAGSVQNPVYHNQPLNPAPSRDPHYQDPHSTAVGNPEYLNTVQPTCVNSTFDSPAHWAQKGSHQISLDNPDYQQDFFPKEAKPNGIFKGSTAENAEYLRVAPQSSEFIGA
From the text: Epidermal growth factor receptor (EGFR), a PTK of receptor type, is a single-stranded trans-membrane glycoprotein consisting of 1186 amino acids, whose molecular weight is […], and exists extensively on the epithelial membrane of the mammals. The C end of the EGFR can recognize and activate many cellular substrates after phosphorylated, then effect on metabolization, growth and carcinogenesis of a cell. […] In our research, we used A431 cell containing the EGFR for picking up PTK, so as to observe the effect of the proteoglycan extract of spirulina on phosphorylation of PTK.

| SMILES | T-lymphocyte percentage (mice injected with CTX) | inhibition rate ([1]; Results 1, positive control, 2.5 mM) | inhibition rate ([1]; Results 2, positive control, 0.25 mM) | inhibition rate ([1]; Results 3, positive control, 0.25 mM) |
| --- | --- | --- | --- | --- |
| O=P1(N(CCCl)CCCl)NCCCO1 (stereo not shown) [CTX] | 25.6 ± 2.51% | – | – | – |
| N#CC(C#N)=Cc1cc(O)c(O)c(O)c1 [tyrphostin 25] | – | Positive control: 2.5 mM tyrphostin 25, inhibition rate: 100% | Positive control: 0.25 mM tyrphostin 25, inhibition rate: 86.1% | Positive control: 0.25 mM tyrphostin 25, inhibition rate: 80.5% |
